According to paper PMC5826917, “A small molecule inhibitor of Nicotinamide N-methyltransferase for the treatment of metabolic disorders” (Scientific Reports, 2018):

Columns and labels:
[1] = system: Nicotinic AChR Receptor Muscle-Type; assay: Selectivity panel: nAChR muscle-type; format: binding; details: 10 µM
human NNMT (hNNMT) = biological target: T1, human NNMT (hNNMT) (Homo sapiens, UniProt P40261); assay: Fluorescence based NNMT enzymatic assay (human); details: fluorescence based biochemical assay
T1 construct: The full length NNMT proteins (1–264 amino acids) of human & mouse; 6 × His tag (N); TEV cleavage site (ENLYFQG) (N); made in house; host or cells: E. coli Rosetta2(DE3)pLysS
Protocol: (§1) NNMT activity was measured with the fluorescence enzymatic assay[22],[23]. MNA formed in the NNMT reaction reacts with acetophenone in the presence of KOH and formic acid and forms a fluorescent product 2, 7- naphthyridine. JBSNF-000088 was screened using human, mouse and monkey NNMT enzymes. Different concentrations of inhibitors were preincubated along with the enzyme for 30 minutes at room temperature. Reaction was initiated by addition of SAM and nicotinamide mixture (7 µM, 20 µM, 8 µM SAM and 6 µM, 20 µM, 9 µM nicotinamide for human, mouse and monkey NNMT assays respectively) for 60 minutes at 37 °C. The final assay reaction mixture contained a buffer of 100 mM Tris Hcl pH 7.5, 0.04% BSA, 2 mM dithiothreitol and 1% DMSO. At the end of the incubation, the reaction was stopped by the addition of ethanol: acetophenone mix (75% ethanol: 25% acetophenone) and 5 M potassium hydroxide prepared with 50% ethanol. The reaction was incubated for 15 minutes following which 100 µL of 60% formic acid was added. […] The fluorescent product 2, 7- naphthyridine was measured using a Tecan reader with excitation at 375 nm and emission at 430 nm. The IC50 values were determined by fitting the inhibition curves (percent inhibition versus inhibitor concentration) using a four parametric sigmoidal dose response using GraphPad Prism software.

mouse NNMT (mNNMT) = biological target: T2, mouse NNMT (mNNMT) (Mus musculus, UniProt O55239); assay: Fluorescence based NNMT enzymatic assay (mouse); details: fluorescence based biochemical assay
T2 construct: The full length NNMT proteins (1–264 amino acids) of human & mouse; 6 × His tag (N); TEV cleavage site (ENLYFQG) (N); made in house; host or cells: E. coli Rosetta2(DE3)pLysS
Protocol: as §1

in vitro = details: human, microsomes, Metabolic stability human microsomes (% remaining)
[2] = biological target: Adrenoreceptor alpha 2A (ADRA2A) (Homo sapiens, UniProt P08913); assay: Selectivity panel: ADRA2A; format: cell-based
Protocol: (§2) Supplement 41598_2018_22081_MOESM1_ESM.docx, table 2: Supplementary table 2: Selectivity profile of JBSNF-000088 (at 10 µM) vs a panel of 34 receptors, channels and enzymes. | column: E% (agonistic); I% (antagonistic or inhibitory)

in vivo = details: male, db/db (BKS.Cg- + Leprdb/ + Leprdb/OlaHsd), mouse, in vivo, JBSNF-000088 (μM)
Protocol: (§3) Samples for MNA were analyzed employing a fit-for-purpose LC-MS/MS method. PE-Sciex API-4000 triple quadrupole (PerkinElmerSciex Instruments, Boston, MA) mass spectrometer was employed for this analysis. Samples (5 µL) were injected onto Kinetex HILIC (50 × 4.6 mm, 2.6 µm; Phenomenex, Torrance, CA, USA) column connected to Shimadzu VP (Shimadzu, Japan) LC system. The gradient mobile phase mixture of 0.2% formic acid and acetonitrile was delivered at a flow rate of 0.45 ml min-1 into the mass spectrometer electrospray ionization (ESI) chamber. Quantitation was achieved by MS/MS detection in positive ion mode for MNA and internal standard (d4–MNA). Detection of the ions was performed in the multiple reaction monitoring (MRM) mode, monitoring the transition of the m/z 137 precursor ion to the m/z 92 product ion for MNA and m/z 141 precursor ion to the m/z 84 product ion for d4-MNA (internal standard).
(§4) A simple protein precipitation extraction method was followed for extraction of N-methylnicotinamide from plasma and various tissue homogenate samples. The tissue samples were homogenized with 1:3 proportions of phosphate buffer saline (PBS) and this homogenate was used for N-Methylnicotinamide determinations. To an aliquot of ~50 μL of plasma/ liver homogenate/ adipose tissue homogenate samples ~300 µl of acetonitrile containing IS (d4-MNA) solution was added, followed by vortex for ~3 minutes and centrifuged for 10 minutes at 14,000 rpm. The supernatant was separated and transferred to pre-labeled HPLC vials and analyzed by LC-MS/MS system.
(§5) Samples for methylated JBSNF-000088 were analyzed employing a fit-for-purpose LC-MS/MS method. PE-Sciex API-5500 triple quadrupole (PerkinElmerSciex Instruments, Boston, MA) mass spectrometer was employed for this analysis. Samples (2 µL) were injected onto Atlantis dC18 (50 × 4.6 mm, 3 µm; Waters, Milford, MA, USA) column connected to Shimadzu VP (Shimadzu, Japan) LC system. The gradient mobile phase mixture of 0.2% formic acid and acetonitrile was delivered at a flow rate of 0.9 mL min-1 into the mass spectrometer electrospray ionization (ESI) chamber. Quantitation was achieved by MS/MS detection in positive ion mode for methylated JBSNF-000088 and internal standard (Tolbutamide). Detection of the ions was performed in the multiple reaction monitoring (MRM) mode, monitoring the transition of the m/z 168 precursor ion to the m/z 128.8, product ion for MNA and m/z 271 precursor ion to the m/z 91 product ion for tolbutamide (internal standard).
(§6) Male C57BL6/N (Vivo Bio Tech Ltd, India), ob/ob (B6.V-Lepob/OlaHsd) and its lean control (Envigo laboratories Inc, USA) and db/db (BKS.Cg- + Leprdb/ + Leprdb/OlaHsd) and its lean control (Envigo laboratories Inc, USA) were housed in individually ventilated cages (n = 5/cage) under standard laboratory conditions. The study room environment was maintained at a temperature of 21–24 °C and, relative humidity at 40–70%. The animal rooms were maintained under 12 h light and dark cycle. Animals were provided with ad libitum access to water and food (except where noted otherwise, e.g. during fasting prior for glucose tolerance tests, fasting prior to terminal sacrifice). Animals were acclimatized for 1 week before initiation of studies. For Diet induced obesity (DIO) mice study, C57BL6/N mice were maintained on rodents chow diet (Teklad; Harlan) or HFD (60% Kcal; Research diet) for 14 weeks before study initiation and throughout the study period. ob/ob and db/db mice and their lean controls were maintained on rodents chow diet (Teklad; Harlan). All the experiments were approved by Institutional Animal Ethics Committee (IAEC) of Jubilant Biosys Ltd, India.
(§7) Lean control + Vehicle and HFD + Vehicle Control groups (G1 and G2) mice were administered with vehicle.

db/db mice = assay: Chronic efficacy study in db/db mice; details: db/db mice
Protocol: as §3, §4, §5, §6, §7

[3] = biological target: Muscarinic Receptor 3 (CHRM3) (Homo sapiens, UniProt P20309); assay: Selectivity panel: CHRM3; format: cell-based
Protocol: as §2

Muscarinic Receptor 3 (CHRM3), sequence (P20309 whole entry): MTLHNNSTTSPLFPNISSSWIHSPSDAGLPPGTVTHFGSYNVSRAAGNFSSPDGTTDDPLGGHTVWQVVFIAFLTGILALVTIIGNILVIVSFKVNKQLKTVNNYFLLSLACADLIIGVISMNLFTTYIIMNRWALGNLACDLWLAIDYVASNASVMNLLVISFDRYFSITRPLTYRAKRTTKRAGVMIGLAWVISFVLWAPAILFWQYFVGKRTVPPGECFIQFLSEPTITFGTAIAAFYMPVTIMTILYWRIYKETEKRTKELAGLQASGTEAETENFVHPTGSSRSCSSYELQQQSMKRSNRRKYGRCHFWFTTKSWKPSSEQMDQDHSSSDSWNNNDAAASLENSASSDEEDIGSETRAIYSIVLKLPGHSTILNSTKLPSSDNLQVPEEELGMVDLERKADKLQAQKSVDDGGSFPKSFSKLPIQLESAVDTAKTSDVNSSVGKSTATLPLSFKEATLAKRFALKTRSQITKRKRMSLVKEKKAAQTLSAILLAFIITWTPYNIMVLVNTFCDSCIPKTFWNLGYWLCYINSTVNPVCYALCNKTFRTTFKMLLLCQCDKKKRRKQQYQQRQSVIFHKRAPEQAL
Adrenoreceptor alpha 2A (ADRA2A), sequence (P08913 whole entry): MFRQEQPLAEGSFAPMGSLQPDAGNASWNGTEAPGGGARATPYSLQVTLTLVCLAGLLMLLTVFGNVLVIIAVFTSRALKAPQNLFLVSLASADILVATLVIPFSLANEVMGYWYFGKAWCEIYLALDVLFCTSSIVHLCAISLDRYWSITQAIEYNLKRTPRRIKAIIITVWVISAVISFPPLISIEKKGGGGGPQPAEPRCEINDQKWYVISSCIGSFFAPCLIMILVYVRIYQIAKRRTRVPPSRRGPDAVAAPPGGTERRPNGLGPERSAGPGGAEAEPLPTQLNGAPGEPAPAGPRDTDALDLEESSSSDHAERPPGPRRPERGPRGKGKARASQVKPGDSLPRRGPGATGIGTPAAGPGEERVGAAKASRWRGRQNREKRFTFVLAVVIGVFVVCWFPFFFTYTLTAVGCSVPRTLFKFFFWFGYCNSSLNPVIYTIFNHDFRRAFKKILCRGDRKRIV
T1 sequence (P40261 whole entry, the tested form may be a part): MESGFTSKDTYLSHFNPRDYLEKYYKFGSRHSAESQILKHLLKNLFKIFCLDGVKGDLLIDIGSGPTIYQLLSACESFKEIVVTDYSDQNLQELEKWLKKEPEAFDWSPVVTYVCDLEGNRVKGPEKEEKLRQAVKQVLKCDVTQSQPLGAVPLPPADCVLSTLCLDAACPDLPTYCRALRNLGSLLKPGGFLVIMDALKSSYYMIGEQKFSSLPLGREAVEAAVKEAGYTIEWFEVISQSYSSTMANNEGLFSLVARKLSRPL
T2 sequence (O55239 whole entry, the tested form may be a part): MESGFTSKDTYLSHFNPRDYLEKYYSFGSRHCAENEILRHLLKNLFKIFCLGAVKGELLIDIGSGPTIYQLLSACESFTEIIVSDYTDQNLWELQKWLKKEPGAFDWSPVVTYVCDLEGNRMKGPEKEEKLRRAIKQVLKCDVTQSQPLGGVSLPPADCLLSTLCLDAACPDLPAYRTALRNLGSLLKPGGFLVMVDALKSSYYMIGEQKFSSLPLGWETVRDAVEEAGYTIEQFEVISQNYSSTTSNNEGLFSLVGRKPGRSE

COc1ccc(C(N)=O)cn1 [JBSNF-000088, 6-methoxynicotinamide]
I% (antagonistic or inhibitory), Nicotinic AChR Receptor Muscle-Type [1]: -2%
IC50 (human NNMT (hNNMT)): 1.8 µM
IC50 (mouse NNMT (mNNMT)): 5 µM
remaining at 0.5 h (in vitro): > 70%
E% (agonistic), ADRA2A ([2]; 10 µM): 4%
inhibition at 10 µM ([2]; read-out: I% (antagonistic or inhibitory), ADRA2A): -12%
concentration at 1 h (in vivo; plasma): 275 ± 39 µM
concentration at 1 h (in vivo; subcutaneous fat): 6.94 ± 1.52 µM
concentration at 1 h (in vivo; visceral fat): 7.14 ± 2.18 µM
HOMA-IR (db/db mice): no change
body weight gain (db/db mice; 50 mg kg^−1 bid, four weeks, vs vehicle): gained comparable weight
MNA levels in liver and visceral WAT and s/c fat (db/db mice; 30 days, p < 0.0001 vs vehicle control): statistically significant reduction
fed blood glucose (db/db mice; day 21, p < 0.001 vs vehicle control): moderate but statistically significant reduction
glucose tolerance (db/db mice; day 26, not statistically significant): trend towards improvement
Fed insulin levels on days 7, 14 and 21 and fasting insulin levels on day 28 (db/db mice; vs vehicle): not different
cumulative food intake (db/db mice; vs vehicle): comparable
AUC blood glucose (OGTT) (db/db mice; vs vehicle control): Slightly lower
E% (agonistic), CHRM3 ([3]; 10 µM): -1%
inhibition at 10 µM ([3]; read-out: I% (antagonistic or inhibitory), CHRM3): 21%
